One assay deals with PBP2a (Staphylococcus aureus, UniProt P07944). The experiment in a line: PBP2a deacylation rate, BOCILLIN FL as reporter. It is filed as biochemical, MRSA. Particulars: deacylation of PBP2a. On the procedure:
Α = A + ∆ε E (k∗ ∕ (k∗ + k∗)(1 − exp (−(k∗ + k∗)t)) + k N ∆ε Ε t (2)
Where kn* is the pseudo-first-order rate constant for acylation by nitrocefin at the concentration (N0) employed (0.1 mM), ki* the pseudo-first-order rate constant for the reaction of PBP2a with the WYBQ-4, E0 the initial enzyme concentration (2.5 µM), and k0 the second-order rate constant of nonspecific nitrocefin hydrolysis. Second-order rate constants (ki) for acylation were calculated from a linear least-squares fit to a plot of the apparent first-order rate constants (ki*) against the concentration of WYBQ-4. All plots were linear for the concentrations of WYBQ-4 used.
Determination of dissociation equilibrium constants (Ks) of WYBQ-4 and PBP2a The dissociation equilibrium constant (Ks) of PBP2a with WYBQ-4 were determined by the BOCILLIN method (2), as previously described. […] Samples (30 μL) were loaded onto a 10% SDS-polyacrylamide gel, which was developed and then observed using a fluorescence imager to calculate the grayscale curve. […]
The deacylation rate constants for wild-type PBP2a were determined using BOCILLIN FL as a reporter molecule. […]
The mixture was diluted 5 times with buffer and incubated at room temperature for different time intervals. […] Grayscale analysis was performed by imageJ and the rate constant k3 for the deacylation reaction of WYBQ-4 with PBP2a was determined based on eqn (3): […]

A further assay relates to MRSA USA300. Description: Mouse lung infection model, survival. The format is in vivo, mice. Particulars: mouse pneumonia, USA300 2 × 10^8 CFU, 12-h intervals, within 72 h. Here is the method:
The animal experiments were performed using 6-week-old male C57BL/6J mice, and the mouse model of lung infection caused by MRSA USA300 was established as previously described ([43], [44]). For the survival rate, mice (10 per group) were infected with MRSA USA300 (2 × 10^8 CFU per mouse). After 2 h of infection, mice were given WYBQ-4 via subcutaneous injection and reinjected at 12-h intervals, whereas mice were treated with ceftaroline fosamil at the same doses and served as positive controls. Mice injected with only MRSA USA300 were used as a negative control. Survival of mice was recorded within 72 h, and survival rates were calculated.

Sequence of PBP2a (P07944 whole entry): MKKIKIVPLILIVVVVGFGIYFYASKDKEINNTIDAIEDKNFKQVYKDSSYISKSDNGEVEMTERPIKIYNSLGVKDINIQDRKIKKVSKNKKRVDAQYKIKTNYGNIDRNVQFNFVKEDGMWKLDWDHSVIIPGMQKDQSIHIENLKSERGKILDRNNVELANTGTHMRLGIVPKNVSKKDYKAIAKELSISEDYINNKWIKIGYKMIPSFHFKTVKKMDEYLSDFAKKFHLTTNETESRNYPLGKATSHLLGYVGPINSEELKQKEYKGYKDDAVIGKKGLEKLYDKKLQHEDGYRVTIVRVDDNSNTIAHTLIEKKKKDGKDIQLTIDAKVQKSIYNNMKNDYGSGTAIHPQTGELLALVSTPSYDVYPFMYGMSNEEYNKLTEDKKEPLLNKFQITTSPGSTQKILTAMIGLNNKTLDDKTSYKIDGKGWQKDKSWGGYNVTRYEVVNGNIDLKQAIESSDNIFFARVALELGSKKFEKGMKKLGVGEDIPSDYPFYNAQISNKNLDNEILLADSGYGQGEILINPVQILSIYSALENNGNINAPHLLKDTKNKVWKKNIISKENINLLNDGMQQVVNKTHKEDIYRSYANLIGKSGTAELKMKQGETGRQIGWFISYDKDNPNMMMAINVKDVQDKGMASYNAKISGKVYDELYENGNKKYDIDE

`C#CCO[C@@]1(NC(=O)CSc2cccc(C)c2)C(=O)N2C(C(=O)O)=C(CSc3nnnn3C)CSC21` (stereo partly drawn) [WYBQ-4] displayed a k3 at PBP2a of 11 ± 1.32 s^–1 × 10^6. Also, the survival rate in the assay with MRSA USA300 (37.5 mg/kg subcutaneous) is reported as 36.67%; with MRSA USA300 (75 mg/kg subcutaneous) it was 70.00%.

(Values after article PMC9603521, “WYBQ-4: a New Bactericidal Agent against Methicillin-Resistant Staphylococcus aureus” (Microbiology Spectrum, 2022).)
